Like-named read-outs stand apart in the source and are kept apart here. Values belong to the compound of their own block, whether it stands above or below them.
Columns and labels:
MAO-B [1] = biological target: T1, MAO-B (Homo sapiens, UniProt P27338); assay: MAO-B inhibition, kynuramine to 4-hydroxyquinoline, HPLC-fluorescence; type: biochemical
T1 construct: purchased BD Biosciences (San Jose, CA) or Corning Discovery Labware (Woburn, MA)
T1 sequence (P27338 1-520): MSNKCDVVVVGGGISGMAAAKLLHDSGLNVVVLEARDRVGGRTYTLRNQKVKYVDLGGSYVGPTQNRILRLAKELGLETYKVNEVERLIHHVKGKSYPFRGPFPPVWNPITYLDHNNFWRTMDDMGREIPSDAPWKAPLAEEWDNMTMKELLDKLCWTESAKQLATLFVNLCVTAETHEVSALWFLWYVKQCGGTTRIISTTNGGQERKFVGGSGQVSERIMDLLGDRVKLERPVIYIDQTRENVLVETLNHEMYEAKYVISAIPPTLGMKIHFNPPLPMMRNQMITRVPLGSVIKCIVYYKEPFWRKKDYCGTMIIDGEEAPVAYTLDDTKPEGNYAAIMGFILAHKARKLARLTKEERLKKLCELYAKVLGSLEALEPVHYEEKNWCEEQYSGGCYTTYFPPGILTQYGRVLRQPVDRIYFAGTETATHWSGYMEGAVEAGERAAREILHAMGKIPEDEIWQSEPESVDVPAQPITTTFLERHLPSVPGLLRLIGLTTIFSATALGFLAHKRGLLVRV

MAO-B in rat brain = biological target: MAO-B in rat brain; design: method as in PMID 15120460; conditions: cited from earlier work
MAO-A in rat brain = conditions: cited from earlier work
MAO-A [2] = conditions: cited from earlier work
MAO-B [3] = conditions: cited from earlier work
MAO-A [4] = biological target: T2, MAO-A (Homo sapiens, UniProt P21397); assay: MAO-A inhibition, kynuramine to 4-hydroxyquinoline, HPLC-fluorescence; type: biochemical; conditions: for MAO-A inhibition (Figure 6): 15 µM test compound (clorgyline 1 µM, selegiline 0.5 µM); for MAO-A inhibition (Figure 6) / IC50 / MAO-A Hill coefficient: kynuramine 10 µM, 15 min; for inhibition of MAO-A activity in screening: highest expected luminal concentration: curcumin 140, guaiacol 435, isoeugenol 110, pterostilbene 270, resveratrol 94, zingerone 51 µM, p < 0.05 vs control; for IC50 / MAO-A Hill coefficient: MAO-A 0.01 mg/mL; for Selectivity Index: ratio of MAO-B IC50/MAO-A IC50
T2 construct: purchased BD Biosciences (San Jose, CA) or Corning Discovery Labware (Woburn, MA)
T2 sequence (P21397 1-527): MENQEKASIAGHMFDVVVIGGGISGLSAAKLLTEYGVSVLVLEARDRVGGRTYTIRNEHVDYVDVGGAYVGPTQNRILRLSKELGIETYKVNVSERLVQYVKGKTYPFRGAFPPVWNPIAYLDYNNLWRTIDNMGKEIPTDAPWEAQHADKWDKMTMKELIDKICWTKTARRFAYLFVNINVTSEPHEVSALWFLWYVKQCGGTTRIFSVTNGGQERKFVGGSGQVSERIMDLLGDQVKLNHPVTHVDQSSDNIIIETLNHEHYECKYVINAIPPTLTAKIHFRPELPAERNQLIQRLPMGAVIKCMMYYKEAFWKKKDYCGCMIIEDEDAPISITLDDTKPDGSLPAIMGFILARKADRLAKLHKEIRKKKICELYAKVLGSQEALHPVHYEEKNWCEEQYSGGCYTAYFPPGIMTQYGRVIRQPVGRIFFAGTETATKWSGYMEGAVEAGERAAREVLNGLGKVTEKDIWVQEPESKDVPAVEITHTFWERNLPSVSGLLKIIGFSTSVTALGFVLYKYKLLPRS

[5] = design: method as in earlier work; conditions: cited from earlier work
MAO-A [6] = biological target: T2, MAO-A; assay: Inhibition mechanism studies (competition, time dependence) with MAO-A; type: biochemical; conditions: 1 μM, preincubation 0-60 min, then kynuramine 20 μM
MAO-A in mouse brain = conditions: after p.o. administration; cited from earlier work
MAO-B in mouse brain = conditions: after p.o. administration; cited from earlier work
MAO-A [7] = biological target: T2, MAO-A; assay: Kynuramine oxidative deamination kinetics (saturation, optimization) with MAO-A; type: biochemical; conditions: mean ± SEM
Protocol: (§1) The optimized incubation time and human recombinant MAO concentration were selected in the linear range from the time-dependent and MAO concentration-dependent studies (Supplemental Data). Briefly, samples were prepared in potassium phosphate buffer (100 mM, pH 7.4) with a final concentration of MAO in the reaction solution of 0.01 mg/mL, incubated at 37°C for 15 min. Saturation of kynuramine metabolism with MAO-A/B was carried out at concentrations of 2, 5, 10, 25, 50, 100, 250, 500 μM. The enzymatic reactions (200μL) were stopped by 2 N NaOH (75 μL) followed with 70% perchloric acid (25 μL). The samples were vortexed and centrifuged for 5 min at 10,000×g. The supernatant was analyzed by HPLC as described above.
(§2) GraphPad Prism 5 was applied to fit a Michaelis-Menten model to the data to obtain the Km values in the saturation experiments. In the screening experiments, significant differences between control and treated group were determined by a one-way ANOVA followed by Dunnett's posttest (p < 0.05). […] The maximum single doses are from published sources. The relevant GI concentration is the lesser of either solubility or the concentration after a single dose.
(§3) Kynuramine (2 to 500 μM) was incubated in 200 μL potassium phosphate buffer (100 mM, pH 7.4) for 15 min with MAO-A or MAO-B (0.01 mg/mL). Michaelis-Menten model was used to fit the data by GraphPad Prism 5. The experiments were conducted 3 times in triplicate. Single representative experiments are shown. […]
(§4) Table S7. Sample Processing Stability for 4-Hydroxyquinoline […]
(§5) B. Optimization of Enzyme Incubations […]
(§6) Kynuramine (10 µM) was incubated with MAO-A (0.01 mg/mL) in 200 µL potassium phosphate buffer (100 mM, pH 7.4) for 10, 20, 30, 40, and 60 min. The formation of 4-hydroxyquinoline was analyzed after the enzymatic reaction. […]

MAO-B [8] = biological target: T1, MAO-B; assay: Kynuramine oxidative deamination kinetics (saturation, optimization) with MAO-B; type: biochemical; conditions: mean ± SEM
Protocol: as §1, §2, §3, §4, §5, §6

human MAO-A = test system: human MAO-A; design: method as in PMID 15095350; conditions: cited from earlier work
human MAO-B = test system: human MAO-B; design: method as in PMID 15095350; conditions: cited from earlier work
[9] = 15 µM test compound (clorgyline 1 µM, selegiline 0.5 µM), kynuramine 10 µM, 15 min
[10] = highest expected luminal concentration: curcumin 140, guaiacol 435, isoeugenol 110, pterostilbene 270, resveratrol 94, zingerone 51 µM, p < 0.05 vs control
[11] = kynuramine 10 µM, MAO-B 0.01 mg/mL, 15 min

MAO-B inhibition (Figure 6) (MAO-B [1]; [9]): failed to inhibit
Compound: COc1cc(/C=C/c2ccc(O[C@@H]3O[C@H](CO)[C@@H](O)[C@H](O)[C@H]3O)cc2)cc(OC)c1 [pterostilbene 4'-glucoside]

Compound: Cc1cc(O)c2c(c1)C(=O)c1cc(O)cc(O)c1C2=O [emodin]
Ki (MAO-B in rat brain): 15.1 µM | mode of inhibition, MAO-B (MAO-B in rat brain): mixed mode

Compound: COc1ccc(C(C)=O)c(O)c1 [paeonol]
Ki (MAO-A in rat brain): 51.1 µM | mode of inhibition, MAO-A (MAO-A in rat brain): non-competitive | Ki (MAO-B in rat brain): 38.2 µM | mode of inhibition, MAO-B (MAO-B in rat brain): competitive

Compound: O=c1c(O)c(-c2ccc(O)c(O)c2)oc2cc(O)cc(O)c12 [quercetin]
MAO-A inhibition (MAO-A [2]): inhibitor | MAO-B inhibition (MAO-B [3]): inhibitor

Compound: OC[C@H]1O[C@@H](Oc2cc(O)cc(/C=C/c3ccc(O)cc3)c2)[C@H](O)[C@@H](O)[C@@H]1O [resveratrol 3-glucoside]
MAO-B inhibition (Figure 6) (MAO-B [1]): failed to inhibit

MAO-A inhibition (Figure 6) (MAO-A [4]): inhibited both enzymes | MAO-B inhibition (Figure 6) (MAO-B [1]; [9]): inhibited both enzymes
Compound: O=c1cc(-c2ccccc2)oc2cc(O)cc(O)c12 [chrysin]

inhibition of MAO-A activity in screening (MAO-A [4]): only inhibited MAO-A | IC50 (MAO-A [4]): 16.3 ± 1.1 µM | inhibition at 51 µM (MAO-B [1]; 51 µM (GI concentration expected from maximum single dose)): < 10%
Compound: COc1cc(CCC(C)=O)ccc1O [zingerone]

Compound: Oc1ccnc2ccccc12 [4-hydroxyquinoline]
estimated most acidic pKa [5]: 4.3 | estimated most basic pKa [5]: 11.1

inhibition of MAO-A activity in screening (MAO-A [4]): significantly inhibited | IC50 (MAO-A [4]): 131 ± 6 µM | Selectivity Index (MAO-A [4]): 2.46 | inhibition of MAO-B activity in screening (MAO-B [1]; [10]): significantly inhibited | IC50 (MAO-B [1]; [11]): 322 ± 27 µM
Compound: COc1ccccc1O [guaiacol]

Compound: N[C@@H]1C[C@H]1c1ccccc1 (racemic) [tranylcypromine]
plateau inhibition, MAO-A (MAO-A [6]): 48%

Compound: O=c1c(O)c(-c2ccc(O)cc2)oc2cc(O)cc(O)c12 [kaempferol]
MAO-A inhibition (MAO-A [2]): selective MAO-A inhibitor

Compound: COc1cc(/C=C/C(=O)CC(=O)/C=C/c2ccc(O)c(OC)c2)ccc1O [curcumin]
inhibition of MAO-A activity in screening (MAO-A [4]): significantly inhibited | MAO-A Hill coefficient (MAO-A [4]): 2.0 ± 0.4 | inhibition of MAO-B activity in screening (MAO-B [1]; [10]): significantly inhibited | MAO-B Hill coefficient (MAO-B [1]; [11]): 1.7 ± 0.1 | MAO-A inhibition in mouse brain (MAO-A in mouse brain): inhibits | MAO-B inhibition in mouse brain (MAO-B in mouse brain): inhibits

Compound: O=C(/C=C/C=C/c1ccc2c(c1)OCO2)N1CCCCC1 [piperine]
Ki (MAO-A in rat brain): 35.8 µM | mode of inhibition, MAO-A (MAO-A in rat brain): mixed | Ki (MAO-B in rat brain): 79.9 µM | mode of inhibition, MAO-B (MAO-B in rat brain): competitive

Compound: isoeugenol
inhibition of MAO-A activity in screening (MAO-A [4]): significantly inhibited | MAO-A Hill coefficient (MAO-A [4]): 1.2 ± 0.1 | Selectivity Index (MAO-A [4]): 27.4 | inhibition of MAO-B activity in screening (MAO-B [1]): significantly inhibited | MAO-B Hill coefficient (MAO-B [1]; [11]): 2.4 ± 0.3

rate of 4-hydroxyquinoline formation, time-dependent study, MAO-A (MAO-A [7]; kynuramine 10 µM, MAO-A 0.01 mg/mL, 10-60 min): 3.28 ± 0.09 nmol/mg/min | rate of 4-hydroxyquinoline formation, MAO concentration-dependent study, MAO-A (MAO-A [7]; kynuramine 10 µM, MAO-A 0.003-0.03 mg/mL, 15 min): 3.06 ± 0.03 nmol/mg/min | Vmax, MAO-A (MAO-A [7]; kynuramine 2-500 μM, 15 min): 10.2 ± 0.2 nmol/min/mg | rate of 4-hydroxyquinoline formation, time-dependent study, MAO-B (MAO-B [8]; kynuramine 10 µM, MAO-B 0.01 mg/mL, 10-60 min): 2.70 ± 0.07 nmol/mg/min | rate of 4-hydroxyquinoline formation, MAO concentration-dependent study, MAO-B (MAO-B [8]; kynuramine 10 µM, MAO-B 0.003-0.03 mg/mL, 15 min): 3.66 ± 0.08 nmol/mg/min | Vmax, MAO-B (MAO-B [8]; kynuramine 2-500 μM, 15 min): 7.35 ± 0.69 nmol/min/mg
Compound: NCCC(=O)c1ccccc1N [kynuramine]
Km (MAO-A [2]): 44.1 µM | Km (MAO-B [3]): 90 µM | Km (human MAO-A): 42 µM | Km (human MAO-B): 26 µM | estimated most basic pKa [5]: 8.4

MAO-A inhibition (Figure 6) (MAO-A [4]): inhibited MAO-A | MAO-B inhibition (Figure 6) (MAO-B [1]; [9]): failed to inhibit
Compound: OC[C@H]1O[C@@H](Oc2ccc(/C=C/c3cc(O)cc(O)c3)cc2)[C@H](O)[C@@H](O)[C@@H]1O [resveratrol 4'-glucoside]
